Reference: patent publication US10364238B2, “N-((het) arylmethyl)-heteroaryl-carboxamides compounds as plasma kallikrein inhibitors” (KALVISTA PHARMACEUTICALS LIMITED, priority 2014, dated 2019)

Legend:
Format in all cases: biochemical
Human FXIa = Human FXIa (Homo sapiens (Human), UniProt P03951); test: Determination of the % inhibition for FXIa; conditions: 40 μM test compound, 25° C., substrate Z-Gly-Pro-Arg-AFC
Description: Determination of the % Inhibition for FXIa
Human FXIa (Enzyme Research Laboratories) was incubated at 25° C. with the fluorogenic substrate Z-Gly-Pro-Arg-AFC and 40 μM of the test compound. Residual enzyme activity (initial rate of reaction) was determined by measuring the change in […].

Human plasma kallikrein = Human plasma kallikrein (Homo sapiens (Human), UniProt P03952); test: Determination of the IC50 for plasma kallikrein; conditions: 25° C., fluorogenic substrate H-DPro-Phe-Arg-AFC; read-out: IC50 (human PKaI)
Description: Determination of the IC50 for Plasma Kallikrein
(§1) Human plasma kallikrein (Protogen) was incubated at 25° C. with the fluorogenic substrate H-DPro-Phe-Arg-AFC and various concentrations of the test compound. Residual enzyme activity (initial rate of reaction) was determined by measuring the change in […] at 410 nm and the IC50 value for the test compound was determined.

Human KLK1 = Human KLK1 (Homo sapiens (Human), UniProt P06870); test: Determination of the IC50 for KLK1; conditions: 25° C., fluorogenic substrate H-DVal-Leu-Arg-AFC
Description: Determination of the IC50 for KLK1
as §1, with “KLK1 (Callbiochem)” for “plasma kallikrein (Protogen)”, “H-DVal-Leu-Arg-AFC” for “H-DPro-Phe-Arg-AFC”

Chain of Human plasma kallikrein (P03952 391-638): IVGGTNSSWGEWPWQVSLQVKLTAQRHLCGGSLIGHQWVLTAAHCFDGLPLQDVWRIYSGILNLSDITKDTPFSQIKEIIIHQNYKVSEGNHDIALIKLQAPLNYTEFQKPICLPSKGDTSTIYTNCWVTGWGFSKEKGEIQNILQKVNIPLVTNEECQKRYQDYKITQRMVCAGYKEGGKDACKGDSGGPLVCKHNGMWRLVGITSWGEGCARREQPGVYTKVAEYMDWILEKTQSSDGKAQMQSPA
Chain of Human plasma kallikrein (P03952 20-390 partner): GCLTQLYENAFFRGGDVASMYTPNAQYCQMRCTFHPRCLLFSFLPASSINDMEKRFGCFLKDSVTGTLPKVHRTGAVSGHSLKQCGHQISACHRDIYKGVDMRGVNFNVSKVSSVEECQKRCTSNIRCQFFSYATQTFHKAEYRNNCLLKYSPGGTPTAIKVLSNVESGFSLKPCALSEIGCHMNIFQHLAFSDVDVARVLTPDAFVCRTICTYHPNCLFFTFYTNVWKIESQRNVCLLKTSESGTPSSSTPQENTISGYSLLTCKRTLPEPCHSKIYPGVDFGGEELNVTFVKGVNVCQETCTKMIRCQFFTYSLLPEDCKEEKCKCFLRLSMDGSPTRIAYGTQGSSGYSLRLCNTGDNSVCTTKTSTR
Chain of Human KLK1 (P06870 25-262): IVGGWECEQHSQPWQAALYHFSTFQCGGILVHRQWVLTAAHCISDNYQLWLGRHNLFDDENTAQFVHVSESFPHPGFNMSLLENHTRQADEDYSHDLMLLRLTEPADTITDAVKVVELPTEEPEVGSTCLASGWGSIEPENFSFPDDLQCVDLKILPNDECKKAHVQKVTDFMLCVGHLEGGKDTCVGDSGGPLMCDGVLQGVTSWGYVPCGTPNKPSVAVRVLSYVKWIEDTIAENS
Chain of Human FXIa (P03951 388-625): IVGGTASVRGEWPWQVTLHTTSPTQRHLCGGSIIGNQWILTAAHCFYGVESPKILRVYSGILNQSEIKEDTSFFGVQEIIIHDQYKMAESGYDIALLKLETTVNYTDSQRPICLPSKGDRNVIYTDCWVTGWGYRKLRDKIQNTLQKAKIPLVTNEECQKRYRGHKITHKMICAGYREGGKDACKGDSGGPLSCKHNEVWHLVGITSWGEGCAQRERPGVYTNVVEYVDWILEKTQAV
Chain of Human FXIa (P03951 19-387 partner): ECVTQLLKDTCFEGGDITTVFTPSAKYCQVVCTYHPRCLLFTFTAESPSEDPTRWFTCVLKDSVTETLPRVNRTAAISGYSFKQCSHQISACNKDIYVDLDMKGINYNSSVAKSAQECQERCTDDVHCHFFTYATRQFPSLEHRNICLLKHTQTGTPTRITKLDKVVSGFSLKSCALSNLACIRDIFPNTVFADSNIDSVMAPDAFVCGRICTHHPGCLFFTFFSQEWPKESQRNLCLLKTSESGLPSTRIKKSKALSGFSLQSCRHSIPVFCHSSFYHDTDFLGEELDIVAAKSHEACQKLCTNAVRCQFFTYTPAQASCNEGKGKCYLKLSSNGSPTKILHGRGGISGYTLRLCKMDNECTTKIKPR

| SMILES | inhibition at 40 µM (Human FXIa) [%] | IC50 (Human plasma kallikrein) [nM] | IC50 (Human KLK1) [nM] |
| --- | --- | --- | --- |
| COCc1nn(Cc2ccc(Cn3ccccc3=O)cc2)cc1C(=O)NCc1cc(Cl)cc(OC)c1 [Example 67, N-[(3-chloro-5-methoxyphenyl)methyl]-3-(methoxymethyl)-1-({4-[(2-oxopyridin-1-yl)methyl]phenyl}methyl)pyrazole-4-carboxamide] | 0 | 393 | > 10000 |
| COCc1nn(Cc2ccc(Cn3ccccc3=O)cc2)cc1C(=O)NCc1ccccc1C(F)F [Example 68, N-{[2-(difluoromethyl)phenyl]methyl}-3-(methoxymethyl)-1-({4-[(2-oxopyridin-1-yl)methyl]phenyl}methyl)pyrazole-4-carboxamide] | 6 | 81.1 | > 10000 |
| COCc1nn(Cc2ccc(Cn3ccccc3=O)cc2)cc1C(=O)NCc1cccc(OC)c1C(F)F [Example 69, N-{[2-(difluoromethyl)-3-methoxyphenyl]methyl}-3-(methoxymethyl)-1-({4-[(2-oxopyridin-1-yl)methyl]phenyl}methyl)pyrazole-4-carboxamide] | 0 | 16.8 | > 40000 |
| Nc1nn(Cc2ccc(Cn3ccccc3=O)cc2)cc1C(=O)NCc1c(F)cccc1C(F)(F)F [Example 70, 3-amino-N-{[2-fluoro-6-(trifluoromethyl)phenyl]methyl}-1-({4-[(2-oxopyridin-1-yl)methyl]phenyl}methyl)pyrazole-4-carboxamide] | 6 | 26.7 | > 10000 |
| COc1cccc(CNC(=O)c2cn(Cc3ccc(Cn4ccccc4=O)cc3)nc2NC(C)=O)c1F [Example 71, 3-acetamido-N-[(2-fluoro-3-methoxyphenyl)methyl]-1-({4-[(2-oxopyridin-1-yl)methyl]phenyl}methyl)pyrazole-4-carboxamide] | 0 | 300 | > 10000 |
| COc1cccc(CNC(=O)c2cn(Cc3ccc(Cn4ccccc4=O)cc3)nc2N(C)C(C)=O)c1F [Example 72, N-[(2-fluoro-3-methoxyphenyl)methyl]-3-(N-methylacetamido)-1-({4-[(2-oxopyridin-1-yl)methyl]phenyl}methyl)pyrazole-4-carboxamide] | 1 | 6610 | > 10000 |
| COCc1nn(Cc2ccc(Cn3ccccc3=O)cc2)cc1C(=O)NCc1c(F)ccc(Cl)c1F [Example 73, N-[(3-chloro-2,6-difluorophenyl)methyl]-3-(methoxymethyl)-1-({4-[(2-oxopyridin-1-yl)methyl]phenyl}methyl)pyrazole-4-carboxamide] | 8 | 120 | > 10000 |
| COCc1nn(Cc2ccc(Cn3ccccc3=O)cc2)cc1C(=O)NCc1cc(Cl)ccc1C#N [Example 76, N-[(5-chloro-2-cyanophenyl)methyl]-3-(methoxymethyl)-1-({4-[(2-oxopyridin-1-yl)methyl]phenyl}methyl)pyrazole-4-carboxamide] | 5 | 28.3 | > 40000 |
| COCc1nn(Cc2ccc(Cn3ccccc3=O)cc2)cc1C(=O)NCc1cccc(OC)c1C(F)(F)F [Example 78, N-{[3-methoxy-2-(trifluoromethyl)phenyl]methyl}-3-(methoxymethyl)-1-({4-[(2-oxopyridin-1-yl)methyl]phenyl}methyl)pyrazole-4-carboxamide] | 0 | 612 | > 10000 |
| COCc1nn(Cc2ccc(Cn3ccccc3=O)cc2)cc1C(=O)NCc1cc(OC)ccc1C(F)(F)F [Example 79, N-{[5-methoxy-2-(trifluoromethyl)phenyl]methyl}-3-(methoxymethyl)-1-({4-[(2-oxopyridin-1-yl)methyl]phenyl}methyl)pyrazole-4-carboxamide] | 2 | 14.7 | > 40000 |
| COCc1nn(Cc2ccc(Cn3ccccc3=O)cc2)cc1C(=O)NCc1cc(OC)ccc1C(F)F [Example 81, N-{[2-(difluoromethyl)-5-methoxyphenyl]methyl}-3-(methoxymethyl)-1-({4-[(2-oxopyridin-1-yl)methyl]phenyl}methyl)pyrazole-4-carboxamide] | 1 | 2.3 | > 40000 |
| COCc1nn(Cc2ccc(Cn3ccccc3=O)cc2)cc1C(=O)NCc1c(F)cccc1C(N)=O [Example 85, N-[(2-carbamoyl-6-fluorophenyl)methyl]-3-(methoxymethyl)-1-({4-[(2-oxopyridin-1-yl)methyl]phenyl}methyl)pyrazole-4-carboxamide] | 46 | 79.2 | > 40000 |
| COCc1nn(Cc2ccc(Cn3ccccc3=O)cc2)cc1C(=O)NCc1ccccc1C(=O)O [Example 87, 2-({[3-(methoxymethyl)-1-({4-[(2-oxopyridin-1-yl)methyl]phenyl}methyl)pyrazol-4-yl]formamido}methyl)benzoic acid] | 2 | > 10000 | > 10000 |
| COCc1nn(Cc2ccc(Cn3ccccc3=O)cc2)cc1C(=O)NCc1cccc(OC(F)F)c1F [Example 90, N-{[3-(difluoromethoxy)-2-fluorophenyl]methyl}-3-(methoxymethyl)-1-({4-[(2-oxopyridin-1-yl)methyl]phenyl}methyl)pyrazole-4-carboxamide] | 2 | 154 | > 40000 |
| COCc1nn(Cc2ccc(Cn3ccccc3=O)cc2)cc1C(=O)NCc1cccc(OC(F)F)c1 [Example 91, N-{[3-(difluoromethoxy)phenyl]methyl}-3-(methoxymethyl)-1-({4-[(2-oxopyridin-1-yl)methyl]phenyl}methyl)pyrazole-4-carboxamide] | 0 | 523 | > 10000 |
| COCc1nn(Cc2ccc(Cn3ccccc3=O)cc2)cc1C(=O)NCc1c(F)cccc1OC(F)F [Example 92, N-{[2-(difluoromethoxy)-6-fluorophenyl]methyl}-3-(methoxymethyl)-1-({4-[(2-oxopyridin-1-yl)methyl]phenyl}methyl)pyrazole-4-carboxamide] | 4 | 16 | > 10000 |
| COCc1nn(Cc2ccc(Cn3ccccc3=O)cc2)cc1C(=O)NCc1cc(F)ccc1F [Example 94, N-[(2,5-difluorophenyl)methyl]-3-(methoxymethyl)-1-({4-[(2-oxopyridin-1-yl)methyl]phenyl}methyl)pyrazole-4-carboxamide] | 0 | 780 | > 10000 |
| COCc1nn(Cc2ccc(Cn3ccccc3=O)cc2)cc1C(=O)NCc1cc(F)cc(OC)c1 [Example 95, N-[(3-fluoro-5-methoxyphenyl)methyl]-3-(methoxymethyl)-1-({4-[(2-oxopyridin-1-yl)methyl]phenyl}methyl)pyrazole-4-carboxamide] | 1 | 308 | > 40000 |
| COCc1nn(Cc2ccc(Cn3ccccc3=O)cc2)cc1C(=O)NCc1cc(F)cc(OC)c1F [Example 96, N-[(2,5-difluoro-3-methoxyphenyl)methyl]-3-(methoxymethyl)-1-({4-[(2-oxopyridin-1-yl)methyl]phenyl}methyl)pyrazole-4-carboxamide] | 0 | 75 | > 40000 |
| COCc1nn(Cc2ccc(Cn3ccccc3=O)cc2)cc1C(=O)NCc1c(C)cccc1F [Example 97, N-[(2-fluoro-6-methylphenyl)methyl]-3-(methoxymethyl)-1-({4-[(2-oxopyridin-1-yl)methyl]phenyl}methyl)pyrazole-4-carboxamide] | 0 | 153 | > 10000 |
| COCc1nn(Cc2ccc(Cn3ccncc3=O)cc2)cc1C(=O)NCc1cccc(OC)c1F [Example 104, N-[(2-fluoro-3-methoxyphenyl)methyl]-3-(methoxymethyl)-1-({4-[(2-oxopyrazin-1-yl)methyl]phenyl}methyl)pyrazole-4-carboxamide] | 0 | 691 | > 10000 |
| COCc1nn(Cc2ccc(Cn3ccc(C)cc3=O)cc2)cc1C(=O)NCc1c(F)ccc(OC)c1F [Example 106, N-[(2,6-difluoro-3-methoxyphenyl)methyl]-3-(methoxymethyl)-1-({4-[(4-methyl-2-oxopyridin-1-yl)methyl]phenyl}methyl)pyrazole-4-carboxamide] | 2 | 140 | > 10000 |
| CCOc1ccn(Cc2ccc(Cn3cc(C(=O)NCc4c(F)ccc(OC)c4F)c(COC)n3)cc2)c(=O)c1 [Example 109, N-[(2,6-difluoro-3-methoxyphenyl)methyl]-1-({4-[(4-ethoxy-2-oxopyridin-1-yl)methyl]phenyl}methyl)-3-(methoxymethyl)pyrazole-4-carboxamide] | 2 | 2980 | > 10000 |
| COc1cccc(CNC(=O)c2cn(Cc3ccc(Cn4ccccc4=O)cc3)c(C)n2)c1F [Example 121, N-[(2-fluoro-3-methoxyphenyl)methyl]-2-methyl-1-({4-[(2-oxopyridin-1-yl)methyl]phenyl}methyl)imidazole-4-carboxamide] | 0 | 43.9 | > 10000 |
